In US20150238617A1, “SILK RESERVOIRS FOR SUSTAINED DELIVERY OF ANTI-CANCER AGENTS” (TUFTS UNIVERSITY, priority 2012, published 2015):
In brackets after ≈: the same amount, converted by molar mass.

Columns and labels:
[1] = effective steady state diffusion coefficient from cylindrical silk reservoir; assay type: physicochemical; conditions: anastrozole diffusion in silk reservoir rods
Text: and different effective length, le values of 10 or 30 mm.

[2] = cited from earlier work
[3] = in vivo pharmacokinetics, plasma anastrozole by LC-MS/MS; design: species or system female Sprague-Dawley rats
Method: A 91-day pharmacokinetic study was conducted on female Sprague-Dawley rats (≧250 g). Test article animals were dosed by a single rod implantation, while positive drug control animals were dosed by a single injection of an ethanol:water (3:7, v/v) solution of equivalent dose. Prior to dosing, all animals were anesthetized by intraperitoneal injection of a cocktail containing ketamine HCl (75 mg/kg) and Xylazine HCl (5 mg/kg). Following anesthesia, the dorsal surface of all animals were shaved and prepared for aseptic administration by wiping with betadine and 70% isopropyl alcohol (3 times each). Animals were placed on a sterile surgical field and covered with Steridrape™. Dosing sites were closed with wound clips. The administration site was circled with indelible ink for future identification of location. Following dosing, all animals were placed in a warmed recovery area and observed until recovered from anesthesia and ambulatory. All animals were observed throughout dosing and each scheduled collection. Body weights were collected weekly in addition to the pre-dose body weight during the duration of the study. Serial blood samples were collected via tail vein or jugular vein at pre-dose, 2 h, 6 h, 24 h (1 d), 2 d, 4 d, 7 d, 10 d, 14 d, 21 d, 28 d, 35 d, 42 d, 49 d, 56 d, 63 d, 70 d, 77 d, 84 d and 91 d and analyzed via LC-MS/MS. Blood samples were stored on wet ice until processed to plasma by centrifugation within 30 min of collection. Plasma were stored at −80° C. until LC-MS/MS analysis.
Briefly, 150 μl of frozen in vivo sample or blank plasma (for double blank, blank and standards) was completely thawed and briefly centrifuged (2000 G, 3 min, 4° C.). […] For extraction, 1 ml diethyl ether:dichloromethane (7:3, v/v) was added to 25 μl of plasma (blank, standard or sample) and 10 μl of aqueous internal standard (100 ng/ml Chlorpheniramine) or deionized water (for double blank) in a glass centrifuge tube using glass serological pipettes and vortexed for 40 s. […]
The auto-sampler of the LC system was kept at 5° C. […] The limit of quantitation (LOQ) was 0.6 ng/ml.

[4] = stability of anastrozole under in vitro release conditions (LC-MS/MS); conditions: deionized water, 0.02 wt. % NaN3, 37° C., longest inter-sampling duration 1 week
Method: The release volume was determined to ensure perfect sink conditions in case of a complete burst release according to:
where V, L and S are the release volume, drug loading and aqueous solubility, respectively. At pre-determined time points, 1 ml of the release medium was sampled. After each sampling, the whole medium was exchanged with fresh buffer.

[5] = cited from earlier work; remark: listed apart in the source
[6] = cited from earlier work; remark: listed apart in the source
[7] = cited from earlier work; remark: listed apart in the source

## CC(C)(C#N)c1cc(Cn2cncn2)cc(C(C)(C)C#N)c1 [anastrozole]
[1]
  effective steady state diffusion coefficient De: 2.4×10^−8 cm^2/s
[2]; Product Monograph value
  terminal elimination half-life t1/2: 50 h
  volume of distribution V: 74 L
[2]; factors in reported accumulation
  steady state plasma concentration Css: 25 ng/mL
[3]; female, Sprague-Dawley, rat, plasma, sc, single s.c. injection of solution, high and low dose, read-out: apparent terminal elimination half-life (converted)
  half-life: ~6 h
[3]; single s.c. injection of solution (water:ethanol 7:3), high (14 mg) and low (5.8 mg) dose
  time of peak plasma concentration: 6 h
[3]; single s.c. injection of solution, high and low dose
  time to decline to background plasma levels: ≤ 96 h
[4]
  degradation of Anastrozole under release conditions: No significant degradation
[5]
  pKa: 1.4
[6]
  log P(octanol/water): 1.58
[7]; at 25° C.
  water solubility: 500 µg/mL (≈ 1700 µM)
[7]; value used in diffusion equation
  aqueous solubility Cs of anastrozole in water: 5000 µg/mL
